Test results from US4526891A, “Substituted alkyl amine derivatives of 6,11-dihydro-11-oxodibenz[b,e]oxepins” (Hoechst Roussel Pharmaceuticals Inc., priority 1983, dated 1985).
Where two headings read alike, the source gives them in different places.

Tested on: 2-phenyl-1,4-benzoquinone-induced writhing
Test: 2-phenyl-1,4-benzoquinone-induced writhing test in mice (analgesia)
Type: in vivo
Details: for ED50: Mus musculus
[1] = po, read-out: ED50 (dosage which exhibits 50% inhibition of writhing)

O=C1c2ccccc2COc2ccc(CCN3CCN(c4ccccc4)CC3)cc21 [1-[2-(6,11-Dihydro-11-oxodibenz[b,e]oxepin-2-yl)ethyl]-4-phenylpiperazine]
ED50 (oral dose, ** ED50, 50% inhibition, read-out: ED50 (dosage which exhibits 50% inhibition of writhing)): 25 mg/kg

CN(C)CCc1ccc2c(c1)C(=O)c1ccccc1CO2.Cl [2-(6,11-Dihydro-11-oxodibenz[b,e]oxepin-2-yl)-N,N-dimethylethylamine hydrochloride]
% Inhibition of writhing (25 mg/kg of body weight, subcutaneously (*)): 66%

CNCCc1ccc2c(c1)C(=O)c1ccccc1CO2.Cl [2-(6,11-Dihydro-11-oxodibenz[b,e]oxepin-2-yl)-N-methylethylamine hydrochloride]
ED50 [1]: 9.8 mg/kg

Cl.NCCc1ccc2c(c1)C(=O)c1ccccc1CO2 [2-(6,11-Dihydro-11-oxodibenz[b,e]oxepin-2-yl)ethylamine hydrochloride]
ED50 [1]: 7.4 mg/kg

CCC(=O)O[C@](Cc1ccccc1)(c1ccccc1)[C@H](C)CN(C)C [propoxyphene, reference compound]
ED50 (sc, read-out: dose giving 50% inhibition of writhing (ED50)): 3.9 mg/kg
